Series [1] deals with T1, C-C chemokine receptor type 4 (Homo sapiens, UniProt P51679).
T1 sequence (P51679 whole entry): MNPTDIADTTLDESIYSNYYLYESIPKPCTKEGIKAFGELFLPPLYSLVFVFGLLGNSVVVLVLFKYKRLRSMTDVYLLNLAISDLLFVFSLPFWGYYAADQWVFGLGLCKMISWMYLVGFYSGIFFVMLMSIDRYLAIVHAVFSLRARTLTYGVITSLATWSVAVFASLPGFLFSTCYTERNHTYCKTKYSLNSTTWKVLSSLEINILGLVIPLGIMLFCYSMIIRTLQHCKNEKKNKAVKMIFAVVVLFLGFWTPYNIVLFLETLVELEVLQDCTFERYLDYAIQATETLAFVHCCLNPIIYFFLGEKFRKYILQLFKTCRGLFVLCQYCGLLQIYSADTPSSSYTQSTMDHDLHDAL
In words: Displacement of [125I]-TARC from human recombinant CCR4 expressed in CHO cell membranes by scintillation counting method. On the technique in general: Loss of bound radioactivity is the signal in a displacement assay; it reports binding, not function.

A short description of series [2]: Kinetic solubility of the compound by chemiluminescent nitrogen detection assay. Conditions: read-out: Kinetic_solubility. The series is classed as physicochemical.
The target in series [3] is T1, C-C chemokine receptor type 4. In words: Antagonist activity at CCR4 in human PBMC assessed as inhibition of actin polymerization by flow cytometry. Conditions: read-out: pA2 (converted).
The target is the same in series [4]. The experiment in a line: Antagonist activity at human CCR4 expressed in CHO cells by [35S]GTPgammaS assay. In kind it is functional, cell-based.
Series [5] shares this target. In words: (§1) Induction of CCR4 internalisation in human HUT78 cells after 30 mins by flow cytometry. The series is classed as functional, cell-based. A general note: Flow cytometry measures light scatter and fluorescence of single cells or particles in a stream.
The target of series [6] is T2, C-C chemokine receptor type 4 (Homo sapiens) (UniProt P51679).
T2 sequence (whole entry): T1 sequence (P51679 whole entry)
The series is described as §1. The series is classed as functional, cell-based.

Series [7] has as its target T2, C-C chemokine receptor type 4 (Homo sapiens). In words: Induction of CCR4 internalisation in human HUT78 cells at 10 nM after 30 mins by flow cytometry. In kind it is functional, cell-based.
The nature of series [8]: Clearance in rat at 1 mg/kg. The series is classed as ADME, organism-based. Conditions: in vivo.
A short description of series [9]: Volume of distribution in rat at 1 mg/kg. The series is classed as ADME, organism-based. Conditions: in vivo.
Series [10] is described as follows: Half life in rat at 1 mg/kg. The series is classed as ADME, organism-based. Conditions: in vivo.
Series [11] can be described thus: Plasma protein binding in human. The settings on record: read-out: PPB (converted). The series is classed as ADME, cell-free.
Series [12] relates to Rattus norvegicus. In words: Clearance in rat at 1 mg/kg relative to liver blood flow. The settings on record: in vivo. In kind it is ADME, organism-based.

≈ marks a conversion by molar mass, not a printed value.

Consider 23 compounds from ChEMBL document CHEMBL3797144, “2,8-Diazaspiro[4.5]decan-8-yl)pyrimidin-4-amine potent CCR4 antagonists capable of inducing receptor endocytosis” (Eur J Med Chem, 2016).

As usually defined, the Ki is the dissociation constant of the complex between target and ligand, obtained from inhibition or displacement. A word on the IC50: it is the midpoint of a concentration-inhibition curve. Read a low IC50 as higher potency. The EC50 is the concentration giving half of the maximal effect. A higher EC50 goes with a less potent agent. As a reminder, the clearance is the volume of plasma or blood freed of the substance per unit of time. Lower therefore signals a low capacity for elimination. What is called Vd is a proportionality between amount in the body and measured concentration, not a real space. Read a low Vd as little distribution into tissue. Broadly, the half-life is how long it takes for the measured level to halve.

Consider `O=C([C@H]1CCCCN1)N1CCN(c2nccc(NCc3ccc(Cl)cc3Cl)n2)CC1`, for which the Ki in series [1] is 0.00251 µM. For the same compound, the solubility kinetic in [2] was determined as 0.14 mg/mL (≈ 312 µM). The Kb in [3] is 0.174 µM. Besides, the IC50 in series [4] was 0.00794 µM.
As for `COc1cc2nc(N3CCC(N(C)C(=O)[C@H]4CCCN4)CC3)nc(Nc3ccc(Cl)cc3F)c2cc1OC`, the EC50 in series [5] was 0.398 µM.
On to `O=C(C1CCCCC1)N1CCC2(CCN(c3nccc(NCc4ccc(Cl)cc4Cl)n3)CC2)C1`, for which the Ki in [1] is 0.631 µM. The solubility kinetic in series [2] came to 0.003 mg/mL (≈ 5.97 µM).
The corresponding values for `O=C([C@@H]1CCCCN1)N1CCC2(CCN(c3nccc(NCc4ccc(Cl)cc4Cl)n3)CC2)C1` are 0.02 µM and 0.17 mg/mL (≈ 338 µM).
Regarding `Cl.Cl.Clc1ccc(CNc2ccnc(N3CCC4(CCNC4)CC3)n2)c(Cl)c1`, the Ki in series [1] was 0.316 µM. Moreover, the solubility kinetic in [2] came out at 0.144 mg/mL.
The corresponding values for `CNCC(=O)N1CCC2(CCN(c3nccc(NCc4ccc(Cl)cc4Cl)n3)CC2)C1.O=C(O)C(F)(F)F.O=C(O)C(F)(F)F` are 0.126 µM and 0.138 mg/mL.
For `O=C([C@H]1CCCCN1)N1CCC2(CCN(c3nccc(NCc4ccc(Cl)cc4Cl)n3)CC2)C1` the same measures were 0.0251 µM and 0.172 mg/mL (≈ 342 µM).
Turning to `Clc1ccc(CNc2ccnc(N3CCC4(CCN(C[C@@H]5CCCN5)C4)CC3)n2)c(Cl)c1`, the Ki in series [1] was 0.00398 µM. The solubility kinetic in series [2] was 0.056 mg/mL (≈ 118 µM). The Activity in series [6] was found to be 56%. The compound also showed an EC50 in series [5] of 0.0126 µM.
As to `O=C(c1ccccn1)N1CCC2(CCN(c3nccc(NCc4ccc(Cl)cc4Cl)n3)CC2)C1`, the Ki in [1] was 0.1 µM. The solubility kinetic in series [2] came out at 0.017 mg/mL (≈ 34.2 µM).
The corresponding values for `O=C([C@H]1CCCN1)N1CCC2(CCN(c3nccc(NCc4ccc(Cl)cc4Cl)n3)CC2)C1` are 0.0158 µM and 0.18 mg/mL (≈ 368 µM).
On to `Clc1ccc(CNc2ccnc(N3CCC4(CCN(C[C@H]5CCCN5)C4)CC3)n2)c(Cl)c1`, for which, in series [1], the Ki is 0.00501 µM. In series [2], the solubility kinetic was found to be 0.016 mg/mL (≈ 33.7 µM). Besides, the Activity in [6] was determined as 64%. The EC50 in series [5] was 0.00631 µM.
Regarding `O=C([C@@H]1CCCN1)N1CCC2(CCN(c3nccc(NCc4ccc(Cl)cc4Cl)n3)CC2)C1`, the Ki in series [1] is 0.1 µM. In addition, the solubility kinetic in [2] is 0.165 mg/mL (≈ 337 µM).
Turning to `C[N+]1(C2CCN(c3ncc(-c4ccc(F)cc4F)c(NCc4ccc(F)cc4F)n3)CC2)CCCCC1`, the Activity in [7] was found to be 50%.
For `Clc1ccc(CNc2ccnc(N3CCC4(CCN(CC5CCCCN5)C4)CC3)n2)c(Cl)c1` (racemic), in [1], the inhibition constant Ki was 0.00251 µM. In addition, the solubility kinetic in series [2] is 0.182 mg/mL (≈ 372 µM).
With `CN(Cc1ccc(Cl)cc1Cl)c1ccnc(N2CCC3(CCN(CC4CCCN4)C3)CC2)n1` (racemic), the Ki in [1] is 0.001 µM. In addition, the solubility kinetic in [2] worked out at 0.141 mg/mL (≈ 288 µM). Besides, the Kb in series [3] is 1 µM. For the same compound, the IC50 in [4] is 0.00794 µM. Moreover, the Activity in series [6] is 74%. In series [5], this compound gave an EC50 of 0.158 µM.
In the case of `O=C(C1CCCN1)N1CCC2(CCN(c3nccc(NCc4ccc(Cl)cc4Cl)n3)CC2)C1` (racemic), in series [1], the Ki is 0.0251 µM. For the same compound, in [2], the solubility kinetic worked out at 0.079 mg/mL (≈ 161 µM).
As for `O=C(C1CCNC1)N1CCC2(CCN(c3nccc(NCc4ccc(Cl)cc4Cl)n3)CC2)C1.O=C(O)C(F)(F)F` (racemic), the Ki in series [1] was 0.0501 µM. For the same compound, in [2], the solubility kinetic turned out to be 0.339 mg/mL.
The corresponding values for `O=C(C1CCCNC1)N1CCC2(CCN(c3nccc(NCc4ccc(Cl)cc4Cl)n3)CC2)C1` (racemic) are 0.0501 µM and 0.186 mg/mL (≈ 369 µM).
In the case of `Clc1ccc(CNc2ccnc(N3CCC4(CCN(CC5CCCN5)C4)CC3)n2)c(Cl)c1` (racemic), the Ki in [1] is 0.00158 µM. The solubility kinetic in series [2] amounted to 0.27 mg/mL (≈ 568 µM). In [3], the Kb is 0.2 µM. In addition, half-maximal inhibition in series [4] (IC50) required 0.00794 µM. In [8], the clearance came to 0.9 L/h/kg. Further, the Vd in [9] came to 5 L/kg. Besides, the half-life in series [10] is 4 h. Moreover, the fraction unbound in [11] was 0.068. This compound also showed a CL in series [12] of 18%.
Consider `CN(Cc1ccc(Cl)cc1Cl)c1ccnc(N2CCC3(CCN(C(=O)C4CCCN4)C3)CC2)n1` (racemic), for which the Ki in series [1] is 0.0251 µM. Moreover, the solubility kinetic in series [2] worked out at 0.19 mg/mL (≈ 377 µM).
`Fc1ccc(CNc2ccnc(N3CCC4(CCN(CC5CCCN5)C4)CC3)n2)c(F)c1` (racemic): in series [1], the Ki was 0.00316 µM. The solubility kinetic in [2] amounted to 0.16 mg/mL (≈ 362 µM). Also, 0.00794 µM corresponded to half-maximal inhibition in series [4] (IC50). The Activity in [6] is 62%. The same compound had an EC50 in series [5] of 0.0158 µM.
Turning to `O=C(C1CCCN1)N1CCC2(CCN(c3nccc(NCc4ccc(F)cc4F)n3)CC2)C1` (racemic), the Ki in [1] is 0.0251 µM. For the same compound, the solubility kinetic in series [2] is 0.175 mg/mL (≈ 383 µM).
`O=C(C1COCCN1)N1CCC2(CCN(c3nccc(NCc4ccc(Cl)cc4Cl)n3)CC2)C1` (racemic): in series [2], the solubility kinetic was found to be 0.233 mg/mL (≈ 461 µM).
